Consider 28 molecules from US20240190821A1, “SULFONAMIDE SUBSTITUTED N-(1H-INDOL-7-YL)BENZENESULFONAMIDES AND USES THEREOF” (Triana Biomedicines, Inc., priority 2021, published 2024).

For assay [1], the target named is T1, DCAF15-RBM39 ternary complex (Homo sapiens, UniProt Q14498+Q66K64).
T1 construct: (RRM2)
Description: Compound-induced DCAF15-RBM39 ternary complex formation, AlphaLISA. The assay is classed as biochemical. Here is the method:
Compound-induced DCAF15-RBM39 ternary complex formation was monitored using AlphaLISA® assays (Perkin Elmer, Waltham, MA). […] 9.8 ul of this protein mixture was then mixed with the compounds in the assay plate and incubated for one hour at room temperature. Reaction mixtures with no compounds added were included as negative controls, while a His-tagged and biotinylated GST protein was included to track general assay performance. […] The beads were then added to the assay plate sequentially with incubation at room temperature for 1-2 hours after each addition.

In assay [2] the target is DCAF15 (Homo sapiens, UniProt Q66K64). The experiment in a line: Binary interaction between compounds and DCAF15, HTRF competition assay. In kind it is binding. Here is the method: DCAF15 interactions with test compounds were monitored using HTRF competition assays (Cisbio, Bedford, MA). […] These two solutions were mixed and incubated for 15 min at room temperature. 9.8 ul of the tracer solution and 10 ul of the DCAF15/mAb Anti-6His-Eu cryptate Gold mixture were added sequentially to each well in the assay plate. Reaction mixtures with no DCAF15 added were included as […] controls. […] Binding was estimated based on ratiometric analysis and titration curves were generated in GraphPad Prism (7.00, GraphPad, La Jolla, CA).
Sequence of DCAF15 (Q66K64 whole entry): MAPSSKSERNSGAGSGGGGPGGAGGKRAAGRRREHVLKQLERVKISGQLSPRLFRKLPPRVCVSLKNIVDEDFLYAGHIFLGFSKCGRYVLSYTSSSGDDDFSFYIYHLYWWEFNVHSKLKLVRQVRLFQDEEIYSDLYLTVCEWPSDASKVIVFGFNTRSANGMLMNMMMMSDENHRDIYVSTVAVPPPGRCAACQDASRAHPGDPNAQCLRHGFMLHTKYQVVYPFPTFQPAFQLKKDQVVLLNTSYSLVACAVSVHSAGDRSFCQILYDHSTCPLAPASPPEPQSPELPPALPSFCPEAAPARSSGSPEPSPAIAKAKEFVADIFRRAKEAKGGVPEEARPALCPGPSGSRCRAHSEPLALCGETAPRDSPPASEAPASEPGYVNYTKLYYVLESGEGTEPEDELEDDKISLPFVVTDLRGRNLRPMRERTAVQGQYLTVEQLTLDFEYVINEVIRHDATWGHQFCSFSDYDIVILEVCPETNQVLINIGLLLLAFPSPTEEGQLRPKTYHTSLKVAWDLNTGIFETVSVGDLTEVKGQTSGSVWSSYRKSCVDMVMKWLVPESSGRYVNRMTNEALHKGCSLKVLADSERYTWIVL
Sequence of DCAF15 (Q16531 whole entry partner): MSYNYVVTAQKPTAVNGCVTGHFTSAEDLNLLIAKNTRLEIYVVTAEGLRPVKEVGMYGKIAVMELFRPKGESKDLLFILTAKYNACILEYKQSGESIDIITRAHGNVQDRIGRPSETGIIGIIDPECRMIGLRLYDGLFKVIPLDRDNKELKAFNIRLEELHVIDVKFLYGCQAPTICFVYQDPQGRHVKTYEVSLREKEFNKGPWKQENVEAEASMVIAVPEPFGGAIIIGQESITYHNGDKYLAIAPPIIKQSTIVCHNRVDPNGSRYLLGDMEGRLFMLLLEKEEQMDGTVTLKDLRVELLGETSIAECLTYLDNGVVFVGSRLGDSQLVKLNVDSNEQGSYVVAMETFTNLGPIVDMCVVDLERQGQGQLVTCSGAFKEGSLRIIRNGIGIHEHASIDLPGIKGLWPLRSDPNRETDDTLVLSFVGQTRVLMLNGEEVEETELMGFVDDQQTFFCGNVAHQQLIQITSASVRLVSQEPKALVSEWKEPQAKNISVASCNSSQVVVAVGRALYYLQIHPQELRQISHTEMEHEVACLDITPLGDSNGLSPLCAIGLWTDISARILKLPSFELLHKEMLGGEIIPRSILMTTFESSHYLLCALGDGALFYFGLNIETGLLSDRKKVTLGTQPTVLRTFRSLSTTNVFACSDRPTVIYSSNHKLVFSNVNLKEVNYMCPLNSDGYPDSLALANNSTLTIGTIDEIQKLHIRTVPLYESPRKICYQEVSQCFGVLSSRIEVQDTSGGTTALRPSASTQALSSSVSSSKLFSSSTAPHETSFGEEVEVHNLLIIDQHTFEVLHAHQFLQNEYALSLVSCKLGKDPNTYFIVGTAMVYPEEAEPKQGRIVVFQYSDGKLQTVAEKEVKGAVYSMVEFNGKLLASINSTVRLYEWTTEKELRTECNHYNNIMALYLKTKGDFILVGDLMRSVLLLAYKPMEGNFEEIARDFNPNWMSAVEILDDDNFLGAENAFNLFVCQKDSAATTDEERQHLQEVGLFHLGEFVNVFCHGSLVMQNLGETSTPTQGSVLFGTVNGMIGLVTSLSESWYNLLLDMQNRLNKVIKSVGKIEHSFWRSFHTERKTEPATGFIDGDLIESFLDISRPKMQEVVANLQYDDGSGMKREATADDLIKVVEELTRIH

The mark [3] stands for this setting: AlphaLISA, His-tagged DCAF15 complex and biotin-carrying RBM39, read-out: Ternary-RBM39 (RRM2) EC50.
[4] abbreviates: HTRF competition with Alexa Fluor 647 tracer, His-tagged DCAF15 complex, read-out: DCAF15 IC50.

SMILES strings stand for the structures. Where two headings read alike, the source gives them in different places. Bounds are passed on as bounds.

T1 sequence (Q66K64 whole entry): as the sequence (Q66K64 whole entry) above
T1 sequence (Q14498 250-328 limits assumed): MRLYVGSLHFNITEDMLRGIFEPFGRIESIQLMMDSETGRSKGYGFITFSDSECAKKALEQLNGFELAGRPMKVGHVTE
T1 sequence (Q16531 whole entry partner): as the sequence (Q16531 whole entry partner) above

With `Cc1ccc(NS(=O)(=O)c2ccc(S(=O)(=O)N3CCN(C4COC4)CC3)cc2)c2[nH]cc(C#N)c12` [Compound 86, N-(3-cyano-4-methyl-1H-indol-7-yl)-4-((4-(oxetan-3-yl)piperazin-1-yl)sulfonyl)benzenesulfonamide], in assay [1] (setting [3]), the 50% effective concentration (EC50) is below 1 µM. The IC50 in assay [2] (setting [4]) was below 20 µM.
For `O=S(=O)(Nc1ccc(Cl)c2c(Cl)c[nH]c12)c1ccc(S(=O)(=O)N2CCNCC2)cc1F` [Compound 44, N-(3,4-dichloro-1H-indol-7-yl)-2-fluoro-4-(piperazin-1-ylsulfonyl)benzenesulfonamide], in assay [1] (setting [3]), the half-maximal effective concentration (EC50) is below 1 µM. Besides, the IC50 in assay [2] (setting [4]) is below 5 µM.
For `CCCN(C(=O)CN)c1ccc(S(=O)(=O)Nc2ccc(Cl)c3c(Cl)c[nH]c23)cc1` [compound 131] the same measures were below 1 µM and below 5 µM.
With `O=S(=O)(Nc1ccc(Cl)c2c(Cl)c[nH]c12)c1ccc(C2(N3CCNCC3)CC2)cc1` [Compound 59, N-(3,4-dichloro-1H-indol-7-yl)-4-(1-(piperazin-1-yl)cyclopropyl) benzenesulfonamide], in assay [1] (setting [3]), the EC50 is below 1 µM. Moreover, the 50% inhibitory concentration (IC50) in assay [2] (setting [4]) was below 5 µM.
On the same counts, the results for `Cc1cc(CNS(=O)(=O)c2ccc(S(=O)(=O)Nc3ccc(Cl)c4c(Cl)c[nH]c34)cc2)nn1C` [Compound 15, N^1-(3,4-dichloro-1H-indol-7-y1)-N^4-((1,5-dimethyl-1H-pyrazol-3-yl)methyl)benzene-1,4-disulfonamide] are below 20 µM and below 5 µM.
On the same counts, the results for `Cc1ccc(NS(=O)(=O)c2ccc(S(=O)(=O)N3CCC(N)CC3)cc2)c2[nH]cc(C#N)c12` [Compound 81, 4-((4-aminopiperidin-1-yl)sulfonyl)-N-(3-cyano-4-methyl-1H-indol-7-yl) benzenesulfonamide] are below 1 µM and below 5 µM.
For `O=S(=O)(Nc1ccc(Cl)c2c(Cl)c[nH]c12)c1cccc(Br)c1` [Compound 76, 3-bromo-N-(3,4-dichloro-1H-indol-7-yl)benzenesulfonamide], the EC50 in assay [1] (setting [3]) was below 5 µM. For the same molecule, the IC50 in assay [2] (setting [4]) is below 20 µM.
On to `CN1CC(CCNS(=O)(=O)c2ccc(S(=O)(=O)Nc3ccc(Cl)c4c(Cl)c[nH]c34)cc2)C1` [Compound 22, N^1-(3,4-dichloro-1H-indol-7-y1)-N^4-(2-(1-methylazetidin-3-yl)ethyl)benzene-1,4-disulfonamide], for which, in assay [1] (setting [3]), the EC50 was below 1 µM. In assay [2] (setting [4]), the concentration for half-maximal inhibition (IC50) was below 5 µM.
On the same counts, the results for `Cc1ccc(NS(=O)(=O)c2ccc(S(=O)(=O)N3CCN4CCCC4C3)cc2)c2[nH]cc(C#N)c12` (centres unmarked) [Compound 91, N-(3-cyano-4-methyl-1H-indol-7-yl)-4-((hexahydropyrrolo[1,2-a]pyrazin-2(1H)-yl)sulfonyl)benzenesulfonamide] are below 1 µM and below 100 µM.
`O=S(=O)(Nc1ccc(Cl)c2c(Cl)c[nH]c12)c1ccc(C(F)(F)C2CCNCC2)cc1` [Compound 70, N-(3,4-dichloro-1H-indol-7-yl)-4-(difluoro(piperidin-4-yl)methyl)benzene sulfonamide]: in assay [1] (setting [3]), the EC50 is below 1 µM. In addition, in assay [2] (setting [4]), the IC50 is below 5 µM.
With `N#Cc1cccc(S(=O)(=O)Nc2ccc(I)c3c(Cl)c[nH]c23)c1` [Compound 102, N-(3-chloro-4-iodo-1H-indol-7-yl)-3-cyanobenzenesulfonamide], in assay [1] (setting [3]), the EC50 is below 5 µM. Further, the half-inhibitory concentration (IC50) in assay [2] (setting [4]) was below 100 µM.
Turning to `O=S(=O)(Nc1ccc(Cl)c2c(Cl)c[nH]c12)c1ccc(C2(N3CCNCC3)COC2)cc1` [Compound 60, N-(3,4-dichloro-1H-indol-7-yl)-4-(3-(piperazin-1-yl)oxetan-3-yl)benzenesulfonamide], the EC50 in assay [1] (setting [3]) was below 1 µM. In addition, the IC50 in assay [2] (setting [4]) is below 5 µM.
For `Cc1ccc(NS(=O)(=O)c2ccc(S(=O)(=O)N3CC4CNCC4C3)cc2)c2[nH]cc(C#N)c12` (centres unmarked) [Compound 92, N-(3-cyano-4-methyl-1H-indol-7-yl)-4-((hexahydropyrrolo[3,4-c]pyrrol-2(1H)-yl)sulfonyl)benzenesulfonamide], the EC50 in assay [1] (setting [3]) is below 1 µM. Further, the 50% inhibitory concentration (IC50) in assay [2] (setting [4]) is below 20 µM.
On to `O=S(=O)(Nc1ccc(Cl)c2cc[nH]c12)c1ccc(S(=O)(=O)N2CCNCC2)cc1` [Compound 87, N-(4-chloro-1H-indol-7-yl)-4-(piperazin-1-ylsulfonyl)benzenesulfonamide], for which the 50% effective concentration (EC50) in assay [1] (setting [3]) is below 5 µM. Moreover, the IC50 in assay [2] (setting [4]) is below 20 µM.
On the same counts, the results for `O=S(=O)(Nc1ccc(Cl)c2c(Cl)c[nH]c12)c1ccc(S(=O)(=O)N2CCCNCC2)cc1` [Compound 52, 4-((1,4-diazepan-1-yl)sulfonyl)-N-(3,4-dichloro-1H-indol-7-yl)benzene sulfonamide] are below 1 µM and below 5 µM.
Consider `O=S(=O)(NCC1CCN(CCCc2ccccc2)CC1)c1ccc(S(=O)(=O)Nc2ccc(Cl)c3c(Cl)c[nH]c23)cc1` [Compound 10, N^1-(3,4-dichloro-1H-indol-7-yl)-N^4-((1-(3-phenylpropyl)piperidin-4-yl)methyl)benzene-1,4-disulfonamide], for which, in assay [1] (setting [3]), the EC50 is below 1 µM. Moreover, the IC50 in assay [2] (setting [4]) was below 5 µM.
On to `CN1CC(NS(=O)(=O)c2ccc(S(=O)(=O)Nc3ccc(Cl)c4c(Cl)c[nH]c34)cc2)CCC1=O` (centres unmarked) [Compound 32, N^1-(3,4-dichloro-1H-indol-7-yl)-N^4-(1-methyl-6-oxopiperidin-3-yl)benzene-1,4-disulfonamide], for which, in assay [1] (setting [3]), the half-maximal effective concentration (EC50) is below 1 µM. Moreover, the IC50 in assay [2] (setting [4]) is below 5 µM.
Take `O=S(=O)(Nc1ccc(Cl)c2c(Cl)c[nH]c12)c1ccc(S(=O)(=O)C2CCNCC2)cc1` [Compound 57, N-(3,4-dichloro-1H-indol-7-yl)-4-(piperidin-4-ylsulfonyl)benzene sulfonamide]: the EC50 in assay [1] (setting [3]) was below 1 µM. The IC50 in assay [2] (setting [4]) was below 5 µM.
On the same counts, the results for `CCCN(c1ccc(S(=O)(=O)Nc2ccc(Cl)c3c(Cl)c[nH]c23)cc1)S(=O)(=O)C1CCNCC1` [Compound 63, N-(4-(N-(3,4-dichloro-1H-indol-7-yl)sulfamoyl)phenyl)-N-propylpiperidine-4-sulfonamide] are below 1 µM and below 5 µM.
On to `O=S(=O)(Nc1ccc(Cl)c2c(Cl)c[nH]c12)c1ccc(S(=O)(=O)N2CCc3[nH]c(-c4ccccc4)nc3C2)cc1` [Compound 54, N-(3,4-dichloro-1H-indol-7-yl)-4-((2-phenyl-1,4,6,7-tetrahydro-5H-imidazo[4,5-c]pyridin-5-yl)sulfonyl) benzene sulfonamide], for which the EC50 in assay [1] (setting [3]) is below 5 µM. Moreover, the IC50 in assay [2] (setting [4]) is below 100 µM.
For `O=S(=O)(Nc1ccc(Cl)c2c(Cl)c[nH]c12)c1ccc(S(=O)(=O)NC2CCOCC2)cc1` [Compound 28, N^1-(3,4-dichloro-1H-indol-7-yl)-N^4-(tetrahydro-2H-pyran-4-yl)benzene-1,4-disulfonamide] the same measures were below 1 µM and below 100 µM.
As to `O=S(=O)(Nc1ccc(Cl)c2c(Cl)c[nH]c12)c1ccc(S(=O)(=O)N2CCC(Oc3cccnc3)CC2)cc1` [Compound 39, N-(3,4-dichloro-1H-indol-7-yl)-4-((4-(pyridin-3-yloxy)piperidin-1-yl)sulfonyl)benzene sulfonamide], the half-maximal effective concentration (EC50) in assay [1] (setting [3]) was below 5 µM. Moreover, the IC50 in assay [2] (setting [4]) was below 20 µM.
Take `O=S(=O)(F)c1ccc(S(=O)(=O)Nc2ccc(Cl)c3c(Cl)c[nH]c23)cc1` [Compound 72, 4-(N-(3,4-dichloro-1H-indol-7-yl)sulfamoyl)benzenesulfonyl fluoride]: the EC50 in assay [1] is below 1 µM. In assay [2], this molecule yielded a 50% inhibitory concentration (IC50) below 20 µM.
Regarding `O=S(=O)(Nc1ccc(Cl)c2c(Cl)c[nH]c12)c1ccc(S(=O)(=O)N2CCNCC2)c(F)c1` [Compound 45, N-(3,4-dichloro-1H-indol-7-yl)-3-fluoro-4-(piperazin-1-ylsulfonyl)benzenesulfonamide], in assay [1] (setting [3]), the EC50 is below 1 µM. Besides, the IC50 in assay [2] (setting [4]) is below 5 µM.
As for `O=C1CCC(NS(=O)(=O)c2ccc(S(=O)(=O)Nc3ccc(Cl)c4c(Cl)c[nH]c34)c(F)c2)CN1` (centres unmarked) [compound 105], the EC50 in assay [1] (setting [3]) is below 20 µM. The half-inhibitory concentration (IC50) in assay [2] (setting [4]) is below 20 µM.
With `O=S(=O)(Nc1ccc(Cl)c2c(Cl)c[nH]c12)c1ccc(S(=O)(=O)N2CCN(CCOCCc3ccccn3)CC2)cc1` [Compound 51, N-(3,4-dichloro-1H-indol-7-yl)-4-((4-(2-(2-(pyridin-2-yl)ethoxy)ethyl)piperazin-1-yl)sulfonyl)benzenesulfonamide], the half-maximal effective concentration (EC50) in assay [1] was below 1 µM. Moreover, the half-maximal inhibitory concentration (IC50) in assay [2] was below 20 µM.
Take `CCCN(C1CCNCC1)S(=O)(=O)c1ccc(S(=O)(=O)Nc2ccc(Cl)c3c(Cl)c[nH]c23)cc1` [Compound 30, N^1-(3,4-dichloro-1H-indol-7-yl)-N^4-(piperidin-4-yl)-N^4-propylbenzene-1,4-disulfonamide]: the half-maximal effective concentration (EC50) in assay [1] (setting [3]) was below 1 µM. For the same molecule, the IC50 in assay [2] (setting [4]) was below 5 µM.
For `CCC(NS(=O)(=O)c1ccc(S(=O)(=O)Nc2ccc(Cl)c3c(Cl)c[nH]c23)cc1)c1ccc2c(c1)OCCO2` (centres unmarked) [Compound 14, N1-(3,4-dichloro-1H-indol-7-yl)-N^4-(1-(2,3-dihydrobenzo[b][1, 4]dioxin-6-yl)propyl)benzene-1,4-disulfonamide] the same measures were below 20 µM and below 20 µM.
